Reference: patent US20030148529A1 (priority 2000, published 2003)

What was measured:
[1] = system: Male and female M. croceipes; set-up: species or system Microplitis croceipes; details: in vivo
M. croceipes = system: M. croceipes; set-up: species or system Microplitis croceipes; details: in vivo

CCCCCC(=O)CC [3-Octanone]
Head-sticking behavior [1]: no head-sticking behavior
Average number of times a trained wasp entered the opening (M. croceipes): approximately 1.5
Average time spent in the opening (M. croceipes): 15 s
Trained wasps displaying head-sticking behavior (M. croceipes): about 18 out of 20
